From PMC3242598, “Phase I study of BIBF 1120 with docetaxel and prednisone in metastatic chemo-naive hormone-refractory prostate cancer patients” (British Journal of Cancer, 2011)

Test system: patients with metastatic, chemo-naive, hormone-refractory prostate cancer (HRPC)
Assay: Phase I safety analysis: adverse events graded by CTCAE version 3.0
Format: in vivo, human
Conditions: all courses
Experimental: On days 2–21 (21-day cycle), patients took an oral dose of BIBF 1120 twice daily. Patients were instructed to swallow BIBF 1120 with water at the same time every day to ensure a dose interval of ∼12 h. On day 2 of treatment cycles (TCs) 1 and 2, patients only took the morning dose of BIBF 1120, omitting the evening dose to allow PK evaluation. All patients were premedicated with oral corticosteroids (dexamethasone 8 mg per os or methylprednisolone 32 mg per os, at 12 h and 1 h before docetaxel infusion) and subsequently took 5 mg prednisone oral BID throughout the trial. On day 1 of each TC, patients received an IV infusion of 75 mg m^−2 docetaxel administered over 1 h.
All patients who received at least one dose of BIBF 1120 or docetaxel were assessed during the safety analysis. Intensity of AEs was graded according to Common Terminology Criteria for Adverse Events (CTCAE) version 3.0. Objective response was defined as a PSA decline ⩾50% from the baseline value over two consecutive courses and/or tumour response according to RECIST criteria ([Therasse et al, 2000]).

[1] = 100 mg BID (n=3) + docetaxel/prednisone, Gr 3/4
[2] = 100 mg BID (n=3) + docetaxel/prednisone, all grades
[3] = 150 mg BID (n=3) + docetaxel/prednisone, Gr 3/4
[4] = 150 mg BID (n=3) + docetaxel/prednisone, all grades
[5] = 200 mg BID (n=3) + docetaxel/prednisone, Gr 3/4
[6] = 200 mg BID (n=3) + docetaxel/prednisone, all grades

COC(=O)c1ccc2c(c1)NC(=O)/C2=C(\Nc1ccc(N(C)C(=O)CN2CCN(C)CC2)cc1)c1ccccc1 [BIBF 1120]
Ageusia: patients with drug-related AE [1]: 0 | Alopecia: patients with drug-related AE [1]: 0 | Anorexia: patients with drug-related AE [1]: 0 | Asthenia: patients with drug-related AE [1]: 0 | Constipation: patients with drug-related AE [1]: 0 | Diarrhoea: patients with drug-related AE [1]: 0 | Dysgeusia: patients with drug-related AE [1]: 0 | Dyspepsia: patients with drug-related AE [1]: 0 | Dysphonia: patients with drug-related AE [1]: 0 | Elevated ALT: patients with drug-related AE [1]: 0 | Elevated AST: patients with drug-related AE [1]: 0 | Elevated GGT: patients with drug-related AE [1]: 0 | Elevated alkaline phosphatase: patients with drug-related AE [1]: 0 | Epistasis: patients with drug-related AE [1]: 0 | Headache: patients with drug-related AE [1]: 0 | Hot flush: patients with drug-related AE [1]: 0 | Mucosal inflammation: patients with drug-related AE [1]: 0 | Muscle spasm: patients with drug-related AE [1]: 0 | Nausea: patients with drug-related AE [1]: 0 | Neuropathy: patients with drug-related AE [1]: 0 | Pyrexia: patients with drug-related AE [1]: 0 | Rash: patients with drug-related AE [1]: 0 | Upper abdominal pain: patients with drug-related AE [1]: 0 | Vomiting: patients with drug-related AE [1]: 0 | Weight decrease: patients with drug-related AE [1]: 0 | Ageusia: patients with drug-related AE [2]: 0 | Alopecia: patients with drug-related AE [2]: 0 | Anorexia: patients with drug-related AE [2]: 0 | Asthenia: patients with drug-related AE [2]: 0 | Constipation: patients with drug-related AE [2]: 0 | Diarrhoea: patients with drug-related AE [2]: 0 | Dysgeusia: patients with drug-related AE [2]: 0 | Dyspepsia: patients with drug-related AE [2]: 0 | Dysphonia: patients with drug-related AE [2]: 0 | Elevated ALT: patients with drug-related AE [2]: 0 | Elevated AST: patients with drug-related AE [2]: 0 | Elevated GGT: patients with drug-related AE [2]: 0 | Elevated alkaline phosphatase: patients with drug-related AE [2]: 0 | Epistasis: patients with drug-related AE [2]: 0 | Headache: patients with drug-related AE [2]: 0 | Hot flush: patients with drug-related AE [2]: 0 | Mucosal inflammation: patients with drug-related AE [2]: 0 | Muscle spasm: patients with drug-related AE [2]: 0 | Nausea: patients with drug-related AE [2]: 0 | Neuropathy: patients with drug-related AE [2]: 0 | Pyrexia: patients with drug-related AE [2]: 0 | Rash: patients with drug-related AE [2]: 0 | Upper abdominal pain: patients with drug-related AE [2]: 0 | Vomiting: patients with drug-related AE [2]: 0 | Weight decrease: patients with drug-related AE [2]: 0 | Ageusia: patients with drug-related AE [3]: 0 | Alopecia: patients with drug-related AE [3]: 0 | Anorexia: patients with drug-related AE [3]: 0 | Asthenia: patients with drug-related AE [3]: 0 | Constipation: patients with drug-related AE [3]: 0 | Diarrhoea: patients with drug-related AE [3]: 0 | Dysgeusia: patients with drug-related AE [3]: 0 | Dyspepsia: patients with drug-related AE [3]: 0 | Dysphonia: patients with drug-related AE [3]: 0 | Elevated ALT: patients with drug-related AE [3]: 0 | Elevated AST: patients with drug-related AE [3]: 0 | Elevated GGT: patients with drug-related AE [3]: 0 | Elevated alkaline phosphatase: patients with drug-related AE [3]: 0 | Epistasis: patients with drug-related AE [3]: 0 | Headache: patients with drug-related AE [3]: 0 | Hot flush: patients with drug-related AE [3]: 0 | Mucosal inflammation: patients with drug-related AE [3]: 0 | Muscle spasm: patients with drug-related AE [3]: 0 | Nausea: patients with drug-related AE [3]: 0 | Neuropathy: patients with drug-related AE [3]: 0 | Pyrexia: patients with drug-related AE [3]: 0 | Rash: patients with drug-related AE [3]: 0 | Upper abdominal pain: patients with drug-related AE [3]: 0 | Vomiting: patients with drug-related AE [3]: 0 | Weight decrease: patients with drug-related AE [3]: 0 | Ageusia: patients with drug-related AE [4]: 1 | Alopecia: patients with drug-related AE [4]: 0 | Anorexia: patients with drug-related AE [4]: 3 | Asthenia: patients with drug-related AE [4]: 3 | Constipation: patients with drug-related AE [4]: 1 | Diarrhoea: patients with drug-related AE [4]: 3 | Dysgeusia: patients with drug-related AE [4]: 1 | Dyspepsia: patients with drug-related AE [4]: 1 | Dysphonia: patients with drug-related AE [4]: 1 | Elevated ALT: patients with drug-related AE [4]: 0 | Elevated AST: patients with drug-related AE [4]: 0 | Elevated GGT: patients with drug-related AE [4]: 0 | Elevated alkaline phosphatase: patients with drug-related AE [4]: 0 | Epistasis: patients with drug-related AE [4]: 1 | Headache: patients with drug-related AE [4]: 2 | Hot flush: patients with drug-related AE [4]: 0 | Mucosal inflammation: patients with drug-related AE [4]: 0 | Muscle spasm: patients with drug-related AE [4]: 0 | Nausea: patients with drug-related AE [4]: 2 | Neuropathy: patients with drug-related AE [4]: 1 | Pyrexia: patients with drug-related AE [4]: 1 | Rash: patients with drug-related AE [4]: 0 | Upper abdominal pain: patients with drug-related AE [4]: 1 | Vomiting: patients with drug-related AE [4]: 0 | Weight decrease: patients with drug-related AE [4]: 1 | Ageusia: patients with drug-related AE [5]: 0 | Alopecia: patients with drug-related AE [5]: 0 | Anorexia: patients with drug-related AE [5]: 0 | Asthenia: patients with drug-related AE [5]: 0 | Constipation: patients with drug-related AE [5]: 0 | Diarrhoea: patients with drug-related AE [5]: 2 | Dysgeusia: patients with drug-related AE [5]: 0 | Dyspepsia: patients with drug-related AE [5]: 0 | Dysphonia: patients with drug-related AE [5]: 0 | Elevated ALT: patients with drug-related AE [5]: 0 | Elevated AST: patients with drug-related AE [5]: 0 | Elevated GGT: patients with drug-related AE [5]: 0 | Elevated alkaline phosphatase: patients with drug-related AE [5]: 0 | Epistasis: patients with drug-related AE [5]: 0 | Headache: patients with drug-related AE [5]: 0 | Hot flush: patients with drug-related AE [5]: 0 | Mucosal inflammation: patients with drug-related AE [5]: 0 | Muscle spasm: patients with drug-related AE [5]: 0 | Nausea: patients with drug-related AE [5]: 0 | Neuropathy: patients with drug-related AE [5]: 0 | Pyrexia: patients with drug-related AE [5]: 0 | Rash: patients with drug-related AE [5]: 0 | Upper abdominal pain: patients with drug-related AE [5]: 0 | Vomiting: patients with drug-related AE [5]: 0 | Weight decrease: patients with drug-related AE [5]: 0 | Ageusia: patients with drug-related AE [6]: 0 | Alopecia: patients with drug-related AE [6]: 0 | Anorexia: patients with drug-related AE [6]: 0 | Asthenia: patients with drug-related AE [6]: 1 | Constipation: patients with drug-related AE [6]: 0 | Diarrhoea: patients with drug-related AE [6]: 2 | Dysgeusia: patients with drug-related AE [6]: 0
